Consider 26 molecules from US9809583B2 (priority 2014, dated 2017).

The target of one test is androgen receptor (hAR) (Homo sapiens (Human), UniProt P10275). The test can be described thus: Test of transcriptional activity (hAR / ARE-Luc dual-luciferase assay in CHO cells). It counts as cell-based. To be noted: CHO cells with hAR and ARE-Luc, 24 hours, 10 nM DHT = 100%. The method in brief: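 Compound at 0.1˜10,000 nM applied for 24 h to CHO cells carrying transfected human AR and an ARE-driven luciferase reporter. Cells were grown 24 h before transfection; readout was dual-luciferase luminescence.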
androgen receptor (hAR), sequence (P10275 whole entry): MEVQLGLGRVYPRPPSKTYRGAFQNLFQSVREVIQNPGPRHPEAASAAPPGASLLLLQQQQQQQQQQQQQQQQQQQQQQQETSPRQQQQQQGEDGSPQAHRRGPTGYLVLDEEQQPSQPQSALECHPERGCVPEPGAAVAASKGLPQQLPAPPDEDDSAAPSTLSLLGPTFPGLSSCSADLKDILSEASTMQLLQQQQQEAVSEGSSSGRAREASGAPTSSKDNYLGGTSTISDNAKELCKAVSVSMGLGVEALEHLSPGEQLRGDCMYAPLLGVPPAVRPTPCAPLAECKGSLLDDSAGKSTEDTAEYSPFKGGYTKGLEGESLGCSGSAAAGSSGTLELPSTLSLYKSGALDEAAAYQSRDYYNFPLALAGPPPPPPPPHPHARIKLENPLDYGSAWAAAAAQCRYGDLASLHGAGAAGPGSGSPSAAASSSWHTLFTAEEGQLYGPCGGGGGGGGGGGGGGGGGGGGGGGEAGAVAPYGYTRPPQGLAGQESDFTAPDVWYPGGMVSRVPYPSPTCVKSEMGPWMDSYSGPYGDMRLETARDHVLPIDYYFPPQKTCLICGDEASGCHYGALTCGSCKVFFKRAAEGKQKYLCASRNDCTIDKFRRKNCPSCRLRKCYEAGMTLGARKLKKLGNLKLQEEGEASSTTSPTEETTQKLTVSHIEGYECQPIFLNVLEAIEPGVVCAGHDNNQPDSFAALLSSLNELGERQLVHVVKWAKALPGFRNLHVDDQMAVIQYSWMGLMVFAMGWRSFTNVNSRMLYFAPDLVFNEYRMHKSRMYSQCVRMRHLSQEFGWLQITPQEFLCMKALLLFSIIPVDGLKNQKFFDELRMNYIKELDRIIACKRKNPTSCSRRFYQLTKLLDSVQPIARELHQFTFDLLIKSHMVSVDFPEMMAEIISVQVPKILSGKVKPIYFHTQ

The next test concerns castrated male rats. Put plainly: Efficacy test in castrated male rat (Hershberger assay). It counts as in vivo, SD (Sprague-Dawley) rat. The following applies: castrated male SD rats, oral once a day for 14 days. As for the experimental part:
SD (Sprague-Dawley) male rats (7-week-old) were castrated under ketamine/xylazine anesthesia, and 5 rats were randomly assigned to one group. From the next day, the agonists were dissolved in a vehicle solution and orally administered at a dose of 5 ml per kg once a day for 14 days. As the vehicle, DMSO, Co-solvent, and DW were prepared at a ratio of 4:80:16 (v/v/v), and Co-solvent was prepared by mixing PEG400, Ethanol, and Tween 80 at a ratio of 85:10:5 (v/v/v). 24 hours after last administration of the drug, their body weight was measured and killed. Thereafter, levator ani muscle, ventral prostate, and seminal vesicles were removed and weighed (Hershberger assay). The following Table 6 represents the result of the efficacy test in castrated male rats.

Setting [1] is: read-out: EC50 [nM] (mean ± SE).

Where two headings read alike, the source gives them in different places.

`COC(=O)Nc1ccc(OC[C@@H]2CN(c3ccc(C#N)c(C(F)(F)F)c3)[C@@H](C(F)(F)F)O2)cc1` [Example 36, methyl(4-(((2R,5S)-3-(4-cyano-3-(trifluoromethyl)phenyl)-2-(trifluoromethyl)oxazolidin-5-yl)methoxy)phenyl)carbamate] returned an EC50 on androgen receptor (hAR) (EC50 [nM] (mean ± SE)) of 8.1 ± 1.9 nM. Moreover, the “levator ani muscle weight % relative to intact control group” value is on record as 18.6 ± 2.2% in the test with castrated male rats (0.1 mg/kg); 18.8 ± 2.7% in the test on castrated male rats (0.3 mg/kg); 53.9 ± 6.5% in the test on castrated male rats (1 mg/kg); 47.0 ± 2.6% in the test with castrated male rats (3 mg/kg); 55.2 ± 10.3% in the test on castrated male rats (10 mg/kg); 58.2 ± 5.8% in the test with castrated male rats (30 mg/kg). Further, in the test with castrated male rats (100 mg/kg), the “levator ani muscle weight % relative to intact control group” value amounted to 65.3 ± 7.9%. In addition, the “seminal vesicles weight % relative to intact control group” value in the test with castrated male rats (0.1 mg/kg) was 2.4 ± 0.6%; in the test with castrated male rats (0.3 mg/kg), −0.2 ± 0.0%; with castrated male rats (1 mg/kg), 4.7 ± 1.0%; with castrated male rats (3 mg/kg), 3.0 ± 0.7%; in the test with castrated male rats (10 mg/kg), 4.7 ± 0.7%; with castrated male rats (30 mg/kg), 10.4 ± 3.1%. Moreover, the “seminal vesicles weight % relative to intact control group” value in the test with castrated male rats (100 mg/kg) is 16.1 ± 4.0%. Besides, the “ventral prostate weight % relative to intact control group” value in the test with castrated male rats (0.1 mg/kg) was 1.0 ± 0.1%; in the test on castrated male rats (0.3 mg/kg), 0.6 ± 0.1%; in the test on castrated male rats (1 mg/kg), 8.0 ± 1.6%; in the test with castrated male rats (3 mg/kg), 4.7 ± 1.9%; in the test with castrated male rats (10 mg/kg), 5.8 ± 0.8%; in the test with castrated male rats (30 mg/kg) it was 10.8 ± 3.1%. Moreover, the “ventral prostate weight % relative to intact control group” value with castrated male rats (100 mg/kg) is given as 12.6 ± 3.1%.

As for `COC(=O)N1CCN(C(=O)[C@@H]2CN(c3ccc([N+](=O)[O-])c(C)c3)[C@@H](C(F)(F)F)O2)CC1` [Example 179, methyl 4-((2R,5S)-3-(3-methyl-4-nitrophenyl)-2-(trifluoromethyl)oxazolidine-5-carbonyl)piperazine-1-carboxylate], the EC50 at androgen receptor (hAR) (setting [1]) worked out at 42 nM.

Consider “(2R,5S)-3-(3-chloro-4-cyanophenyl)-N-(4-cyano-2-fluorophenyl)-2-(trifluoromethyl)oxazolidine-5-carboxamide [Example 119]”, for which the EC50 at androgen receptor (hAR) (setting [1]) was 227 nM.

“(2R,5S)-3-(3-chloro-4-cyanophenyl)-N-(4-cyanophenyl)-2-(trifluoromethyl)oxazolidine-5-carboxamide [Example 117]”: the EC50 on androgen receptor (hAR) (setting [1]) came out at 2 nM.

As to “(2R,5S)-3-(3-chloro-4-cyanophenyl)-N-(6-cyanopyridin-3-yl)-2-(trifluoromethyl)oxazolidine-5-carboxamide [Example 120]”, on androgen receptor (hAR) (setting [1]), the concentration giving a half-maximal response (EC50) is 11.1 nM.

Regarding “(2R,5S)-3-(3-chloro-4-cyanophenyl)-N-(pyridin-4-yl)-2-(trifluoromethyl)oxazolidine-5-carboxamide [Example 121]”, at androgen receptor (hAR) (setting [1]), the EC50 was 616 nM.

For the molecule “(2R,5S)-3-(3-chloro-4-nitrophenyl)-N-(4-cyano-2-fluorophenyl)-2-(trifluoromethyl)oxazolidine-5-carboxamide [Example 124]”, the EC50 at androgen receptor (hAR) (setting [1]) was found to be 3.15 nM.

Regarding “(2R,5S)-3-(3-chloro-4-nitrophenyl)-N-(4-cyanophenyl)-2-(trifluoromethyl)oxazolidine-5-carboxamide [Example 122]”, the EC50 on androgen receptor (hAR) (setting [1]) came to 67.4 nM.

Consider “(2R,5S)-3-(3-chloro-4-nitrophenyl)-N-(6-cyanopyridin-3-yl)-2-(trifluoromethyl)oxazolidine-5-carboxamide [Example 125]”, for which the EC50 on androgen receptor (hAR) (setting [1]) was determined as 11.2 nM.

Take “(2R,5S)-3-(3-chloro-4-nitrophenyl)-N-(pyridin-4-yl)-2-(trifluoromethyl)oxazolidine-5-carboxamide [Example 126]”: the EC50 at androgen receptor (hAR) (setting [1]) stood at 1.21 nM.

As to “(2R,5S)-3-(4-cyano-3-(trifluoromethyl)phenyl)-N-(3,4-dicyanophenyl)-2-(trifluoromethyl)oxazolidine-5-carboxamide [Example 132]”, on androgen receptor (hAR) (setting [1]), the EC50 came out at 3.44 nM.

“(2R,5S)-3-(4-cyano-3-(trifluoromethyl)phenyl)-N-(4-cyano-3-methoxyphenyl)-2-(trifluoromethyl)oxazolidine-5-carboxamide [Example 127]”: on androgen receptor (hAR) (setting [1]), the EC50 is 183 nM.

With “(2R,5S)-N-(2-chloro-4-cyanophenyl)-3-(4-cyano-3-(trifluoromethyl)phenyl)-2-(trifluoromethyl)oxazolidine-5-carboxamide [Example 114]”, the EC50 at androgen receptor (hAR) (setting [1]) came out at 201 nM.

As to “(2R,5S)-N-(2-chloropyridin-4-yl)-3-(3-methyl-4-nitrophenyl)-2-(trifluoromethyl)oxazolidine-5-carboxamide [Example 137]”, the EC50 on androgen receptor (hAR) (setting [1]) was 1.77 nM.

As for “(2R,5S)-N-(3-chloro-4-cyano-2-fluorophenyl)-3-(4-cyano-3-(trifluoromethyl)phenyl)-2-(trifluoromethyl)oxazolidine-5-carboxamide [Example 130]”, the EC50 at androgen receptor (hAR) (setting [1]) was determined as 10.2 nM.

In the case of “(2R,5S)-N-(3-chloro-4-cyanophenyl)-3-(4-cyano-3-(trifluoromethyl)phenyl)-2-(trifluoromethyl)oxazolidine-5-carboxamide [Example 134]”, the EC50 at androgen receptor (hAR) (setting [1]) is 4.96 nM.

As to “(2R,5S)-N-(4-acetamidophenyl)-3-(3-chloro-4-cyanophenyl)-2-(trifluoromethyl)oxazolidine-5-carboxamide [Example 118]”, on androgen receptor (hAR) (setting [1]), the EC50 turned out to be 30.4 nM.

In the case of “(2R,5S)-N-(4-acetamidophenyl)-3-(3-methyl-4-nitrophenyl)-2-(trifluoromethyl)oxazolidine-5-carboxamide [Example 112]”, at androgen receptor (hAR) (setting [1]), the EC50 is 10.1 nM.

“(2R,5S)-N-(4-cyano-2,5-difluorophenyl)-3-(4-cyano-3-(trifluoromethyl)phenyl)-2-(trifluoromethyl)oxazolidine-5-carboxamide [Example 131]”: the 50% effective concentration (EC50) on androgen receptor (hAR) (setting [1]) is 2.35 nM.

As to “(2R,5S)-N-(4-cyano-2,6-difluorophenyl)-3-(4-cyano-3-(trifluoromethyl)phenyl)-2-(trifluoromethyl)oxazolidine-5-carboxamide [Example 129]”, the 50% effective concentration (EC50) at androgen receptor (hAR) (setting [1]) came out at 4.68 nM.

As for “(2R,5S)-N-(4-cyano-2-(trifluoromethyl)phenyl)-3-(4-cyano-3-(trifluoromethyl)phenyl)-2-(trifluoromethyl)oxazolidine-5-carboxamide [Example 128]”, the EC50 on androgen receptor (hAR) (setting [1]) amounted to 11.1 nM.

For the molecule “(2R,5S)-N-(4-cyano-2-fluorophenyl)-3-(3-methyl-4-nitrophenyl)-2-(trifluoromethyl)oxazolidine-5-carboxamide [Example 113]”, the EC50 on androgen receptor (hAR) (setting [1]) stood at 80.5 nM.

“(2R,5S)-N-(4-cyano-2-methylphenyl)-3-(4-cyano-3-(trifluoromethyl)phenyl)-2-(trifluoromethyl)oxazolidine-5-carboxamide [Example 133]”: the EC50 on androgen receptor (hAR) (setting [1]) was found to be 44 nM.

With “(2R,5S)-N-(4-cyanophenyl)-3-(3-methyl-4-nitrophenyl)-2-(trifluoromethyl)oxazolidine-5-carboxamide [Example 111]”, the EC50 at androgen receptor (hAR) (setting [1]) came out at 4.46 nM.

In the case of “(2R,5S)-N-(6-acetamidopyridin-3-yl)-3-(4-cyano-3-(trifluoromethyl)phenyl)-2-(trifluoromethyl)oxazolidine-5-carboxamide [Example 135]”, the EC50 on androgen receptor (hAR) (setting [1]) came out at 4.95 nM.

For the molecule “(2R,5S)-N-(6-cyanopyridin-3-yl)-3-(3-methyl-4-nitrophenyl)-2-(trifluoromethyl)oxazolidine-5-carboxamide [Example 116]”, the EC50 at androgen receptor (hAR) (setting [1]) worked out at 4.32 nM.
